Source: patent US20150017717A1, “CULTURE MEDIUM FOR EUKARYOTIC CELLS” (Friesland Brands B.V., priority 2012, published 2015)

Tests used:
[1] = tested on: IgG expressing CHO cell line (CHO-2: ATCC CRL 11397, producing IgG4); assay: Cell growth of CHO cells in suspension culture (area under growth curve, CEDEX cell counts); assay type: cell-based, Chinese hamster; conditions: dimensionless AUC
Procedure: (§1) The cell culture assay was carried out in commercially available IS CHO-CD medium (Irvine Scientific, Cat. No. 91119). To this media, L-Glutamine (2 mM), pluronic acid, hypoxanthine (100 μM) and thymidine (15 μM) were added. Penicillin and streptomycin were added to prevent any bacterial growth during the growth assay. The media was supplemented with methyl-L-3-phenyl lactate or mucic acid, both purchased from Sigma Aldrich, Germany, in varying concentrations (1×10^−3 to 1×10^−1% (w/v), see Table 2). The supplemented medium was mixed with a vortex mixture, filtered using a 0.22 μm filter and subsequently used in a growth assay.
(§2) An IgG expressing CHO cell line was used (CHO-2: ATCC CRL 11397, producing IgG4). The cell lines were grown in the adherent conditions for a few passages and once confluent, they were transferred to animal-free conditions in the supplemented media described in Example 2.
(§3) To measure growth and production curves, Chinese hamster ovary (CHO) cells were grown in suspension culture in baffled flasks. 20×10^6 cells were transferred in 25 ml media to the baffled flasks. Chemically defined media with and without added alpha-hydroxy acid derivatives were tested. No fresh media was added during the growth assay. Cells were counted using the CEDEX HiRes cell counter (Innovatis, Germany). The cell counts were used to calculate the area under the growth curve and represented as dimensionless area under curve (AUC) values as described in detail in Ling, C. X, Huang, J. and Zhang, H. (2003), International joint conferences on artificial intelligence, pp. 329-341. The supernatant samples were taken every alternate days for the IgG production measurements. IgG production was measured using sandwich ELISA method. The specific IgG production was calculated by taking the ratio of cumulative IgG production (in mg/ml) and AUC measured at day 11 of the growth assay. The cells were visually inspected using a phase contrast microscope (Zeiss Axiovert 25, 400× magnification). […] Only single cells were observed and no aggregation of cells was seen. The cell shape was also positively affected. […] This was in contrast with the observation that a lot of cell aggregates were present in CHO cell cultures grown in chemically defined medium without alpha-hydroxy acid derivatives.

[2] = tested on: IgG expressing CHO cell line (CHO-2: ATCC CRL 11397, producing IgG4); assay: Specific IgG production of CHO cells in supplemented chemically defined medium (sandwich ELISA / AUC); assay type: cell-based, Chinese hamster; conditions: ratio of cumulative IgG production (mg/ml) and AUC at day 11
Procedure: as §1, §2, §3

[3] = tested on: cell culture (antibody production); assay: Linear regression of antibody production in cell culture assays against relative concentration of components in plant protein hydrolysates; assay type: cell-based; conditions: linear regression over plant protein hydrolysates, MS Excel SLOPE function
Procedure: Commercial plant protein hydrolysates like SE50MAF-UF, WGE80M-UF, CNE80M-UF, PCE80B obtained from FrieslandCampina Domo, USA were analysed by Liquid chromatography/Mass Spectrometry (LC/MS, LC/MS2) using a Waters Acquity UPLC and a Thermo-Finnigan LTQ mass spectrometer, which consists of an electrospray ionization (ESI) source and linear ion-trap (LIT) mass analyzer. The sample extract was split into two aliquots, dried, then reconstituted in acidic or basic LC-compatible solvents. One aliquot was analyzed using acidic positive ion optimized conditions and the other using basic negative ion optimized conditions in two independent injections using separate dedicated columns. Extracts reconstituted in acidic conditions were gradient eluted using water and methanol both containing 0.1% formic acid, while the basic extracts, which also use water/methanol, contain 6.5 mM ammonium bicarbonate. The MS analysis alternated between MS and data-dependent MS2 scans using dynamic exclusion. Biochemicals were identified by comparison to metabolomic library entries of purified standards or recurrent unknown entities. The combination of chromato-graphic properties and mass spectra gives an indication of a match to the specific compound or an isobaric entity. Thus, an overview of the biochemical components and their relative concentration present in plant protein hydrolysates was generated. Furthermore, all the hydrolysates were tested in the cell culture assays for cell growth and antibody production. […] Using the SLOPE function of Microsoft Excel 2003, the correlation between antibody production and relative concentration of the components was calculated, the results of which are presented in Table 1 below. The higher the positive slope, the higher the importance of a biochemical component in the cell culture. p-values, also calculated using MS Excel's correlation regression function, represent the significance of the values, with the lower the p-value (all between 0 and 1), the more significant the measured value.

| Structure (SMILES) | Cell growth (area under curve) after 14 days ([1]; 1 × 10^−1 % w/v added) | Cell growth (area under curve) after 14 days ([1]; 1 × 10^−2 % w/v added) | Cell growth (area under curve) after 14 days ([1]; 1 × 10^−3 % w/v added) | Specific IgG production after 11 days ([2]; 1 × 10^−1 % w/v added) | Specific IgG production after 11 days ([2]; 1 × 10^−2 % w/v added) | Specific IgG production after 11 days ([2]; 1 × 10^−3 % w/v added) | SLOPE (correlation of antibody production and relative concentration of the component) [3] |
| --- | --- | --- | --- | --- | --- | --- | --- |
| O=C(O)[C@@H](O)[C@H](O)[C@H](O)[C@@H](O)C(=O)O [Mucic acid, mucic acid] | 48.29 | 49.64 | 49.88 | 84.61 | 90.27 | 90.85 | 2108.11 |
| COC(=O)[C@@H](O)Cc1ccccc1 [Methyl-L-3-phenyl lactate, methyl-L-3-phenyl lactate] | 46.70 |  |  | 77.80 |  |  |  |
| CC(C)CC(O)C(=O)O (stereo not drawn) [alpha-hydroxyisocaproic acid] |  |  |  |  |  |  | 1654.23 |
| CC(C)C(O)C(=O)O (stereo not drawn) [alpha-hydroxyisovaleric acid] |  |  |  |  |  |  | 2830.96 |
